From the NIST ThermoML archive (doi:10.1021/je300848z)
± gives the expanded uncertainty stated by the source.

Conditions: Liquid; for vapor or sublimation pressure: Ebulliometric method (Recirculating still)

CCCCC(CC)CCl (centres undefined) [1-chloro-2-ethylhexane]
vapor or sublimation pressure (371.05 K): 9.9 ± 0.2 kPa | vapor or sublimation pressure (375.35 K): 11.7 ± 0.2 kPa | vapor or sublimation pressure (385.85 K): 17.1 ± 0.2 kPa | vapor or sublimation pressure (394.25 K): 22.8 ± 0.2 kPa | vapor or sublimation pressure (399.5 K): 27.1 ± 0.2 kPa | vapor or sublimation pressure (403.5 K): 30.8 ± 0.2 kPa | vapor or sublimation pressure (405.85 K): 33.2 ± 0.2 kPa | vapor or sublimation pressure (411.9 K): 39.9 ± 0.2 kPa | vapor or sublimation pressure (412.05 K): 40 ± 0.2 kPa | vapor or sublimation pressure (419.05 K): 49.4 ± 0.3 kPa | vapor or sublimation pressure (425.2 K): 59 ± 0.3 kPa | vapor or sublimation pressure (431.15 K): 69.6 ± 0.3 kPa | vapor or sublimation pressure (436.65 K): 80.7 ± 0.3 kPa | vapor or sublimation pressure (441.45 K): 91.6 ± 0.3 kPa | vapor or sublimation pressure (445.4 K): 101.3 ± 0.3 kPa | Normal boiling temperature (Equilibrium Still): 172.2 ± 0.2 °C

Cc1ccc(C)cc1 [1,4-dimethylbenzene]
vapor or sublimation pressure (379.85 K): 40 ± 0.34 kPa

CN1CCCC1=O [N-methylpyrrolidone]
vapor or sublimation pressure (441.8 K): 40 ± 0.34 kPa

CCCCC(CC)CO (centres undefined) [2-ethyl-1-hexanol]
vapor or sublimation pressure (427.2 K): 40 ± 0.34 kPa
